{
  "source": "patent EP3741762A1",
  "about": "“OXALAMIDO-SUBSTITUTED TRICYCLIC INHIBITORS OF HEPATITIS B VIRUS” (priority 2019, dated 2020)",
  "data": [
    {"test_system": "HBV", "experiment": "Anti-HBV activity in vitro: quantification of extracellular HBV DNA by direct qPCR in HepAD38 cells", "type": "cell-based", "conditions": "Hepatitis B virus, tetracycline-free medium, 96 hours at 37°C, reported as EC50 threshold value, read-out: HBV inh EC50", "excerpt": "HepAD38 cell line (Ladner et al., Antimicrob Agents Chemother, 1997, 41, 1715-20) was used for HBV inhibition assays. HepAD38 is a subclone, derived from Hepatoblastoma cell line HepG2 (ATCC® Number: HB-8065™), that expresses HBV genome under the transcriptional control of a tetracycline-responsive promoter in a TET-OFF system: addition of tetracycline (TET) or doxycycline suppresses HBV replication, while its removal switches on the process allowing HBV viral particles release in the cell supernatant. HepAD38 cell line is maintained in DMEM/F12, supplemented with 10% of fetal bovine serum, 1% of glutamine, 1% of penicillin/streptomycin, 0.4 mg/ml G418 and 0,3 ug/ml tetracycline. For the HBV inhibition assay, doxycycline-free medium is used in order to allow virion production.\nHBV inhibition activity in vitro was performed in 96 multiwell plates. During the initial (primary) screening, compounds were first tested in triplicates at concentrations of 0.02 µM, 0.1 µM, 0.5µM and 1µM. For selected compounds, an 8-point dose-response curve was obtained using 1:2 serial dilutions (starting from 0.01µM, 0.1µM, 0.4µM or 5 µM, depending on the degree of inhibition observed during the primary screening). From the dose-response curves, half maximal effective concentration (EC50) could be calculated (see also below).\nIn more detail, compounds - typically dissolved in DMSO stock solutions - were diluted to 2x the final desired concentration in 100 µl of the above medium (without doxycycline) and plated in three replicates in the 96-well plates.\nSimultaneously, HepAD38 cells - extensively pre-washed in tetracycline-free medium in order to induce HBV production - were suspended at 2^∗10^4 cells in 100 µl of tetracycline-free medium and added to each well of the plate, to yield a final assay volume of 200 µl DMSO - used for stock solutions and compounds dilutions - which was always present in the assays at a final concentration of 0.5%.\nPlates were then incubated 96 hours at 37°C and then subjected to cell viability assays and extracellular HBV quantification, in order to evaluate both the cytotoxic potential and the antiviral activity of compounds. Cytotoxicity was assessed by a commercial fluorescence assay that measures the metabolic activity of cells, directly related to cell viability (Cell Titer Blue, Promega). Anti-HBV activity was evaluated by quantification of extracellular HBV DNA with direct qPCR. In particular, supernatant was collected and centrifuged for cell debris clarification, viral DNA was extracted from virions by addition of lysis buffer (1 mM 1,4-dithiothreitol, 0.2% sodium dodecyl sulphate) and incubated at 95°C for 10 min. Samples were then diluted 1:40 and real time PCR amplification was performed with SYBR green assay (Power SYBR™ Green PCR Master Mix-Thermo Fisher Scientific) and specific HBV primer (HBV-DF:5'-[…]-3' (SEQ ID No. 1), HBV-DR:5'-[…]-3' (SEQ ID No.2)).\nAntiviral activity data for each compound are reported as EC50 threshold value (see Table 1 legend). Excel and Graphpad Prism programs are typically used for data elaboration and EC50 calculation.", "units": {"EC50": "nM"}, "values": [
      {"molecule": "CN(C)C(=O)C(=O)N1C[C@@H]2COc3c(cn(C)c3C(=O)Nc3cc(F)c(F)c(F)c3)S(=O)(=O)N[C@@H]2C1", "note": "(relative stereo) [Example E1, cis-2-(2-(dimethylamino)-2-oxoacetyl)-7-methyl-N-(3,4,5-trifluorophenyl)-2,3,3a,4,10,10a-hexahydro-1H,7H-dipyrrolo[3,4-b:3',4'-f][1,4,5]oxathiazocine-8-carboxamide 5,5-dioxide]", "EC50": "< 500"},
      {"molecule": "Cc1cc(NC(=O)c2c3c(cn2C)S(=O)(=O)N[C@@H]2CN(C(=O)C(=O)NC4(C)COC4)C[C@@H]2CO3)ccc1F", "note": "(relative stereo) [Example E2, cis-N-(4-fluoro-3-methylphenyl)-7-methyl-2-(2-((3-methyloxetan-3-yl)amino)-2-oxoacetyl)-2,3,3a,4,10,10a-hexahydro-1H,7H-dipyrrolo[3,4-b:3',4'-f][1,4,5]oxathiazocine-8-carboxamide 5,5-dioxide]", "EC50": "< 500"},
      {"molecule": "CNC(=O)C(=O)N1C[C@@H]2COc3c(cn(C)c3C(=O)Nc3ccc(F)c(C)c3)S(=O)(=O)N[C@@H]2C1", "note": "(relative stereo) [Example E10, cis N-(4-fluoro-3-methylphenyl)-7-methyl-2-(2-(methylamino)-2-oxoacetyl)-2,3,3a,4,10,10a-hexahydro-1H,7H-dipyrrolo[3,4-b:3',4'-f][1,4,5]oxathiazocine-8-carboxamide 5,5-dioxide]", "EC50": "< 500"},
      {"molecule": "Cc1cc(NC(=O)c2c3c(cn2C)S(=O)(=O)N[C@@H]2CN(C(=O)C(N)=O)C[C@@H]2CO3)ccc1F", "note": "(relative stereo) [Example E11, cis-2-(2-amino-2-oxoacetyl)-N-(4-fluoro-3-methylphenyl)-7-methyl-2,3,3a,4,10,10a-hexahydro-1H,7H-dipyrrolo[3,4-b:3',4'-f][1,4,5]oxathiazocine-8-carboxamide 5,5-dioxide]", "EC50": "< 500"},
      {"molecule": "CNC(=O)C(=O)N1C[C@@H]2COc3c(cn(C)c3C(=O)Nc3cc(F)c(F)c(F)c3)S(=O)(=O)N[C@@H]2C1", "note": "(relative stereo) [Example E12, cis-7-methyl-2-(2-(methylamino)-2-oxoacetyl)-N-(3,4,5-trifluorophenyl)-2,3,3a,4,10,10a-hexahydro-1H,7H-dipyrrolo[3,4-b:3',4'-f][1,4,5]oxathiazocine-8-carboxamide 5,5-dioxide]", "EC50": "< 500"},
      {"molecule": "Cn1cc2c(c1C(=O)Nc1cc(F)c(F)c(F)c1)OC[C@H]1CN(C(=O)C(N)=O)C[C@H]1NS2(=O)=O", "note": "(relative stereo) [Example E13, cis-2-(2-amino-2-oxoacetyl)-7-methyl-N-(3,4,5-trifluorophenyl)-2,3,3a,4,10,10a-hexahydro-1H,7H-dipyrrolo[3,4-b:3',4'-f][1,4,5]oxathiazocine-8-carboxamide 5,5-dioxide]", "EC50": "< 500"},
      {"molecule": "Cc1cc(NC(=O)c2c3c(cn2C)S(=O)(=O)N[C@@H]2CN(C(=O)C(=O)NC4CC4)C[C@]2(C)CO3)ccc1F", "note": "(relative stereo) [Example E25, cis-2-(2-(cyclopropylamino)-2-oxoacetyl)-N-(4-fluoro-3-methylphenyl)-7,10a-dimethyl-2,3,3a,4,10,10a-hexahydro-1H,7H-dipyrrolo[3,4-b:3',4'-f][1,4,5]oxathiazocine-8-carboxamide 5,5-dioxide]", "EC50": "< 500"},
      {"molecule": "Cc1cc(NC(=O)c2c3c(cn2C)S(=O)(=O)N[C@]2(C)CN(C(=O)C(=O)NC4CC4)C[C@@H]2CO3)ccc1F", "note": "(relative stereo) [Example E28, cis-2-(2-(cyclopropylamino)-2-oxoacetyl)-N-(4-fluoro-3-methylphenyl)-3a,7-dimethyl-2,3,3a,4,10,10a-hexahydro-1H,7H-dipyrrolo[3,4-b:3',4'-f][1,4,5]oxathiazocine-8-carboxamide 5,5-dioxide]", "EC50": "< 500"},
      {"molecule": "Cc1cc(NC(=O)c2c3c(cn2C)S(=O)(=O)N[C@@H]2CN(C(=O)C(=O)NC4CC4)C[C@H]2CO3)ccc1F", "note": "(relative stereo) [Example E31, trans-2-(2-(cyclopropylamino)-2-oxoacetyl)-N-(4-fluoro-3-methylphenyl)-7-methyl-2,3,3a,4,10,10a-hexahydro-1H,7H-dipyrrolo[3,4-b:3',4'-f][1,4,5]oxathiazocine-8-carboxamide 5,5-dioxide]", "EC50": "< 500"},
      {"molecule": "Cc1cc(NC(=O)c2c3c(cn2C)S(=O)(=O)N[C@@H]2CN(C(=O)C(=O)N[C@H](C)C(F)(F)F)C[C@]2(C)CO3)ccc1F", "note": "(stereo in doubt) [Example E26, Cis-N-(4-fluoro-3-methylphenyl)-7,10a-dimethyl-2-(2-oxo-2-(((R)-1,1,1-trifluoropropan-2-yl)amino)acetyl)-2,3,3a,4,10,10a-hexahydro-1H,7H-dipyrrolo[3,4-b:3',4'-f][1,4,5]oxathiazocine-8-carboxamide 5,5-dioxide]", "EC50": "< 500"},
      {"molecule": "Cc1cc(NC(=O)c2c3c(cn2C)S(=O)(=O)N[C@]2(C)CN(C(=O)C(=O)N[C@H](C)C(F)(F)F)C[C@@H]2CO3)ccc1F", "note": "(stereo in doubt) [Example E27, Cis-N-(4-fluoro-3-methylphenyl)-3a,7-dimethyl-2-(2-oxo-2-(((R)-1,1,1-trifluoropropan-2-yl)amino)acetyl)-2,3,3a,4,10,10a-hexahydro-1H,7H-dipyrrolo[3,4-b:3',4'-f][1,4,5] oxathiazocine-8-carboxamide 5,5-dioxide]", "EC50": "< 500"},
      {"molecule": "Cc1cc(NC(=O)c2c3c(cn2C)S(=O)(=O)N[C@@H]2CN(C(=O)C(=O)N[C@H](C)C(F)(F)F)C[C@H]2CO3)ccc1F", "note": "(stereo in doubt) [Example E30, trans-N-(4-fluoro-3-methylphenyl)-7-methyl-2-(2-oxo-2-(((R)-1,1,1-trifluoropropan-2-yl)amino)acetyl)-2,3,3a,4,10,10a-hexahydro-1H,7H-dipyrrolo[3,4-b:3',4'-f][1,4,5]oxathiazocine-8-carboxamide 5,5-dioxide]", "EC50": "< 500"},
      {"molecule": "Cc1cc(NC(=O)c2c3c(cn2C)S(=O)(=O)N[C@H]2CN(C(=O)C(=O)NC4(C)COC4)C[C@H]2CO3)ccc1F", "note": "[Example E3, (3aR,10aR)-N-(4-fluoro-3-methylphenyl)-7-methyl-2-(2-((3-methyloxetan-3-yl)amino)-2-oxoacetyl)-2,3,3a,4,10,10a-hexahydro-1H,7H-dipyrrolo[3,4-b:3',4'-f][1,4,5]oxathiazocine-8-carboxamide 5,5-dioxide]", "EC50": "< 500"},
      {"molecule": "Cn1cc2c(c1C(=O)Nc1cc(F)c(F)c(F)c1)OC[C@@H]1CN(C(=O)C(=O)NC3(C)COC3)C[C@@H]1NS2(=O)=O", "note": "[Example E4, (3aR,10aR)-7-methyl-2-(2-((3-methyloxetan-3-yl)amino)-2-oxoacetyl)-N-(3,4,5-trifluorophenyl)-2,3,3a,4,10,10a-hexahydro-1H,7H-dipyrrolo[3,4-b:3',4'-f][1,4,5]oxathiazocine-8-carboxamide 5,5-dioxide]", "EC50": "< 500"},
      {"molecule": "Cn1cc2c(c1C(=O)Nc1ccc(F)c(Cl)c1)OC[C@@H]1CN(C(=O)C(=O)NC3(C)COC3)C[C@@H]1NS2(=O)=O", "note": "[Example E5, (3aR,10aR)-N-(3-chloro-4-fluorophenyl)-7-methyl-2-(2-((3-methyloxetan-3-yl)amino)-2-oxoacetyl)-2,3,3a,4,10,10a-hexahydro-1H,7H-dipyrrolo[3,4-b:3',4'-f][1,4,5] oxathiazocine-8-carboxamide 5,5-dioxide]", "EC50": "< 500"},
      {"molecule": "Cn1cc2c(c1C(=O)Nc1ccc(F)c(C#N)c1)OC[C@@H]1CN(C(=O)C(=O)NC3(C)COC3)C[C@@H]1NS2(=O)=O", "note": "[Example E6, (3aR,10aR)-N-(3-cyano-4-fluorophenyl)-7-methyl-2-(2-((3-methyloxetan-3-yl)amino)-2-oxoacetyl)-2,3,3a,4,10,10a-hexahydro-1H,7H-dipyrrolo[3,4-b:3',4'-f][1,4,5] oxathiazocine-8-carboxamide 5,5-dioxide]", "EC50": "> 500"},
      {"molecule": "Cc1cc(NC(=O)c2c3c(cn2C)S(=O)(=O)N[C@H]2CN(C(=O)C(=O)NC(C)(C)C)C[C@H]2CO3)ccc1F", "note": "[Example E7, (3aR,10aR)-2-(2-(tert-butylamino)-2-oxoacetyl)-N-(4-fluoro-3-methylphenyl)-7-methyl-2,3,3a,4,10,10a-hexahydro-1H,7H-dipyrrolo[3,4-b:3',4'-f][1,4,5]oxathiazocine-8-carboxamide 5,5-dioxide]", "EC50": "< 500"}
    ]}
  ]
}
